One may read the IC50 as the concentration that gives 50% inhibition. A higher IC50 goes with weaker potency in that assay.

Consider 23 compounds from US9346761B2, “Arginine methyltransferase inhibitors and uses thereof” (Epizyme, Inc., priority 2013, dated 2016).

T1 sequence (O60678 with tags, fused parts or gaps): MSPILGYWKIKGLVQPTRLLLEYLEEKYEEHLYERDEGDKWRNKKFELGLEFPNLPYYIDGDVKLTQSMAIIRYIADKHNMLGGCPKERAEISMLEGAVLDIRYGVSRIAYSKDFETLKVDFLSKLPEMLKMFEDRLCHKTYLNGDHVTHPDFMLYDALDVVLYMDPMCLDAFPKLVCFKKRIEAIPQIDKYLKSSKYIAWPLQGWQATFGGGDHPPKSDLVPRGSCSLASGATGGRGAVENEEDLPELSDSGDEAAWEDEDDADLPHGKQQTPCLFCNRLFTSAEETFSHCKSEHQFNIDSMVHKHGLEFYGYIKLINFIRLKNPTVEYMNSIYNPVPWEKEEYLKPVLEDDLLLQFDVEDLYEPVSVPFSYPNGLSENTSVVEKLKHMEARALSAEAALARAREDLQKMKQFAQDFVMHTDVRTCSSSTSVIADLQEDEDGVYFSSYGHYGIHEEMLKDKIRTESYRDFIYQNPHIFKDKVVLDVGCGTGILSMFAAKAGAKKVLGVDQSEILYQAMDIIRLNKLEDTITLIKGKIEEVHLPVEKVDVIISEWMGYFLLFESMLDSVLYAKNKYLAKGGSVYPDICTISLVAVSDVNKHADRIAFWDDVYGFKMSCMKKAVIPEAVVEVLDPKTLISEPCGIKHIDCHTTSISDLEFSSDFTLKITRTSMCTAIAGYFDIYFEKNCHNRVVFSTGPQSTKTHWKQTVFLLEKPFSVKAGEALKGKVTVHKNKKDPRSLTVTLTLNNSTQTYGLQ

This test concerns the target T1, Full-length human PRMT3 (Homo sapiens, UniProt O60678).
T1 construct: GST-tagged PRMT3; made in house; host or cells: E. coli BL21(DE3) Gold (pGEX-KG)
Put plainly: PRMT3 biochemical assay (3H-SAM Flashplate, peptide substrate). In a few lines: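 GST-tagged full-length PRMT3 (0.5 nM, E. coli-expressed) preincubated 30 min at room temperature with compound, then 330 nM biotinylated peptide, 100 nM 3H-SAM plus 1.8 uM SAM in Bicine pH 7.6, 2% DMSO.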
Compound `CNCCN(C)Cc1cn[nH]c1-c1cc(F)cc(F)c1` [Compound 18] displayed an IC50 of 3.01 to 10 µM.

`CNCCN(C)Cc1cnn(CCCC(O)CO)c1-c1ccc(F)cc1` (centres unmarked) [Compound 31] returned an IC50 of more than 10 µM.

Regarding `CCNC(=O)c1cccc(-c2n[nH]cc2CN(C)CCNC)c1` [Compound 43], the IC50 is more than 10 µM.

Compound `CNCCN(C)Cc1cnn(C2CC2)c1-c1ccc(F)cc1` [Compound 14] showed an IC50 of more than 10 µM.

As for `CNCCN(C)Cc1c[nH]nc1-c1ccc(CO)cc1` [Compound 28], the IC50 fell in the range of 0.101 to 1 µM.

As for `CNCCN(C)Cc1cn(C2CC2)nc1-c1ccc(F)cc1` [Compound 13], the IC50 is more than 10 µM.

As to `CNCCN(C)Cc1c[nH]nc1-c1ccc(OC)cc1` [Compound 25], the IC50 is more than 10 µM.

Take `CNCCN(C)Cc1c[nH]nc1-c1cccc(O)c1` [Compound 26]: the IC50 was more than 10 µM.

In turn, `CCCc1ccc(-c2n[nH]cc2CN(C)CCNC)cc1` [Compound 20] yielded an IC50 of 3.01 to 10 µM.

`CNCCN(C)Cc1c[nH]nc1-c1ccc(N)cc1` [Compound 33] yielded an IC50 of 1.01 to 3 µM.

Turning to `CNCCN(C)Cc1c[nH]nc1-c1cccc(OC)c1` [Compound 24], the half-maximal inhibitory concentration (IC50) was more than 10 µM.

In turn, `CNCCN(C)Cc1c[nH]nc1-c1cccc(C#N)c1` [Compound 22] came in with a half-maximal inhibitory concentration (IC50) of more than 10 µM.

`CNCCN(C)Cc1cnn(C(C)C)c1-c1ccc(F)cc1` [Compound 16] came in with a concentration for half-maximal inhibition (IC50) of more than 10 µM.

Take `CNCCN(C)Cc1c[nH]nc1-c1ccc(O)cc1` [Compound 27]: the IC50 was more than 10 µM.

In the case of `CNCCN(C)Cc1c[nH]nc1-c1ccc(Oc2ccccc2)cc1` [Compound 37], the IC50 is 0.101 to 1 µM.

On to `CNCCN(C)Cc1c[nH]nc1-c1ccc(C)cc1C` [Compound 29], for which the half-inhibitory concentration (IC50) was more than 10 µM.

In turn, `CNCCN(C)Cc1c[nH]nc1-c1ccccc1OC(F)(F)F` [Compound 40] registered an IC50 of more than 10 µM.

Compound `CNCCN(C)Cc1c[nH]nc1-c1cccc([N+](=O)[O-])c1` [Compound 21] showed an IC50 of 1.01 to 3 µM.

The compound `CNCCN(C)Cc1c[nH]nc1-c1ccccc1C(F)(F)F` [Compound 38] displayed an IC50 of more than 10 µM.

In the case of `CNCCN(C)Cc1cn(C(C)C)nc1-c1ccc(F)cc1` [Compound 15], the concentration for half-maximal inhibition (IC50) is more than 10 µM.

Compound `CNCCN(C)Cc1c[nH]nc1-c1ccccc1OC` [Compound 23] gave a 50% inhibitory concentration (IC50) of more than 10 µM.

In turn, `CNCCN(C)Cc1cn[nH]c1-c1ccc(C#N)cc1` [Compound 17] displayed a concentration for half-maximal inhibition (IC50) of 1.01 to 3 µM.

Compound `CNCCN(C)Cc1cn(CCCC(O)CO)nc1-c1ccc(F)cc1` (centres unmarked) [Compound 30] had a concentration for half-maximal inhibition (IC50) of more than 10 µM.
